# Source: patent publication US20110177061A1, “METHODS OF TREATING AND PREVENTING NEUROLOGICAL DISORDERS USING DOCOSAHEXAENOIC ACID” (MARTEK BIOSCIENCES CORPORATION, priority 2009, published 2011)
# “Also recorded” adds a separate entry of the source.
# Assays:
# [1] = tested on: human patients with mild to moderate Alzheimer's disease; experiment: MMSE (secondary outcome) in clinical trial; type: in vivo
# Description: (§1) A clinical trial was carried out to determine whether chronic DHA supplementation slows the progression of cognitive and functional decline in human patients with mild to moderate Alzheimer's disease. In the study, 402 individuals with mild to moderate Alzheimer's disease participated for 18 months at sites throughout the United States. Participants were randomized so that 60% of participants received approximately 2 grams of DHA (divided into 4 capsules—2 capsules taken twice a day), while 40% of the participants received an identical placebo of corn/soy oil. The DHA soft-gel capsules used in the study were provided by Martek Biosciences Corporation, and contained a microbial oil of 55% DHA (as a percentage of total fatty acids) in triglyceride form, in addition to tocopherol and orange flavoring. The capsules contained no detectable EPA. The placebo was a 50/50 mixture of corn/soy oil and also included mixed tocopherols, ascorbyl, palmitate, orange flavoring, and orange masking agent. Following the eligibility assessment, 238 of the 402 patients were randomly assigned to the DHA treatment group and 164 patients to the placebo group. Of the 238 patient DHA treatment group, 171 patients completed the full 18 month course of treatment. Of the 164 placebo group, 124 patients completed the full 18 month course of treatment. Various parameters were measured at baseline and at every 6 months through the conclusion of the trial at 18 months.
# [2] = tested on: human patients with mild to moderate Alzheimer's disease; experiment: NPI (secondary outcome) in clinical trial; type: in vivo
# Description: as §1
# [3] = tested on: human patients with mild to moderate Alzheimer's disease; experiment: ADCS-ADL (secondary outcome) in clinical trial; type: in vivo
# Description: as §1
# [4] = tested on: human patients with mild to moderate Alzheimer's disease; experiment: CDR-SOB (co-primary outcome) in clinical trial; type: in vivo
# Description: as §1
# [5] = tested on: human patients with mild to moderate Alzheimer's disease; experiment: MRI sub-study, brain volume change; type: in vivo
# Description: as §1, with “agent.” for “agent. Following the eligibility assessment, 238 of the 402 patients were randomly assigned to the DHA treatment group and 164 patients to the placebo group. Of the 238 patient DHA treatment group, 171 patients completed the full 18 month course of treatment. Of the 164 placebo group, 124 patients completed the full 18 month course of treatment. Various parameters were measured at baseline and at every 6 months through the conclusion of the trial at 18 months.”
# [6] = Cerebrospinal fluid (CSF) DHA levels in CSF sub-study; type: in vivo, human
# Description: All subjects without contraindication to cerebrospinal fluid (CSF) exam (e.g., anticoagulation) were invited to participate in the CSF study. In these subjects, lumbar puncture was performed in the morning after an overnight fast.
# (§2) Plasma phospholipid fatty acid levels were determined using established methods, with modifications for cerebrospinal fluid analysis (Arterburn et al., 2007, Lipids 42(11):1011-1024; Arterburn et al., 2008, J Am Diet Assoc. 108(7):1204-1209). The fatty acid profiles were expressed as a percent of the total μg of fatty acid (weight percent).
# [7] = tested on: human patients with mild to moderate Alzheimer's disease; experiment: Vital signs and lab results in clinical trial; type: in vivo; conditions: 18 month trial
# Description: (§3) A clinical trial was carried out to determine whether chronic DHA supplementation slows the progression of cognitive and functional decline in human patients with mild to moderate Alzheimer's disease.
# (§4) In the study, 402 individuals with mild to moderate Alzheimer's disease participated for 18 months at sites throughout the United States. Participants were randomized so that 60% of participants received approximately 2 grams of DHA (divided into 4 capsules—2 capsules taken twice a day), while 40% of the participants received an identical placebo of corn/soy oil. The DHA soft-gel capsules used in the study were provided by Martek Biosciences Corporation, and contained a microbial oil of 55% DHA (as a percentage of total fatty acids) in triglyceride form, in addition to tocopherol and orange flavoring. The capsules contained no detectable EPA. The placebo was a 50/50 mixture of corn/soy oil and also included mixed tocopherols, ascorbyl, palmitate, orange flavoring, and orange masking agent.
# (§5) Various parameters were measured at baseline and at every 6 months through the conclusion of the trial at 18 months.
# [8] = tested on: human patients with mild to moderate Alzheimer's disease; experiment: Pre-planned secondary analysis of DHA treatment and ApoE4 allelic status, all outcome measures; type: in vivo
# Description: as §3, §4
# A pre-planned secondary analysis was also carried out examining the effect of DHA treatment and ApoE4 (E4) allelic status. […] This effect was also evident on the MMSE (−3.36±4.78 in DHA compared to 5.12±5.08 in placebo; p=0.034), but was not present on the CDR-SOB, the ADCS-ADL, or the NPI.
# [9] = Plasma phospholipid DHA levels in clinical trial; type: in vivo, human; conditions: DHA treatment group
# Source text: as §4, §5, §2
# [10] = tested on: human patients with mild to moderate Alzheimer's disease; experiment: ADAS-cog (co-primary outcome) in clinical trial; type: in vivo
# Description: as §1
# [11] = all subjects, LME model, GEE or ANCOVA
smiles,measurement,setting,value
"CC/C=C\C/C=C\C/C=C\C/C=C\C/C=C\C/C=C\CCC(=O)O [DHA, (all-Z)-4,7,10,13,16,19-docosahexaenoic acid]","MMSE change, E4-negative group","[1]; ApoE4-negative, placebo printed 5.12±5.08, p=0.034",−3.36±4.78
same,MMSE points change from baseline to 18 months,"[1]; all subjects, ANCOVA, placebo −4.0±4.7, p=0.88",−3.70±4.95 points
same,Difference DHA vs placebo on MMSE,"[1]; all subjects, after 18 months of treatment",no significant difference
same,DHA treatment effect on NPI in the E4-negative group,[2]; ApoE4-negative subjects,not present
same,NPI points change over 18 months,"[2]; all subjects, LME analysis, placebo 5.09±15.08, p=0.11",2.93±13.62 points
same,Difference DHA vs placebo on NPI,[2]; [11],no significant difference
same,DHA treatment effect on ADCS-ADL in the E4-negative group,[3]; ApoE4-negative subjects,not present
same,ADCS-ADL points change over 18 months (rate of decline),"[3]; all subjects, LME analysis, placebo 10.43±11.74, p=0.38",11.51±13.23 points
same,Difference DHA vs placebo on ADCS-ADL,[3]; [11],no significant difference
same,DHA treatment effect on CDR-SOB in the E4-negative group,[4]; ApoE4-negative subjects,not present
same,Difference DHA vs placebo on CDR-SOB (rate of change),"[4]; all subjects, LME model, GEE or ANCOVA, ITT or per protocol",also did not differ; also recorded: no significant difference
same,CDR-SOB points change over 18 months,"[4]; all subjects, placebo 2.87±2.93, p=0.68",2.93±2.83 points
same,"Absolute volume change over 18 months, total ventricular volume","[5]; MRI sub-study n=53 DHA, placebo 8.1±5.9, p=0.55",9.1±5.0 cm^3
same,"Absolute volume change over 18 months, total brain","[5]; MRI sub-study n=53 DHA, placebo 24.0±14.6, p=0.79",24.7±12.3 cm^3
same,"Absolute volume change over 18 months, right hippocampus","[5]; MRI sub-study n=53 DHA, placebo 148±109, p=0.29",176±128 mm^3
same,"Absolute volume change over 18 months, left hippocampus","[5]; MRI sub-study n=53 DHA, placebo 175±135, p=0.17",141±104 mm^3
same,Effect of DHA treatment on absolute amount of brain volume change over 18 months,"[5]; MRI sub-study, ANCOVA, total brain, hippocampus, total ventricular volume",no evidence of an effect
same,Effect of DHA on rates of brain atrophy among ApoE4 negative subjects,"[5]; MRI sub-study, n=21 DHA, n=17 placebo",Neither was an effect of DHA seen
same,CSF DHA,"[6]; DHA supplemented group n=29, 18 months, p<0.001",3.45 wt %
same,CSF DHA,"[6]; DHA supplemented group n=29, baseline (before treatment)",2.53 wt %
same,Cholesterol level change,[7],modest increase
same,Diastolic blood pressure change,[7],modest decline
same,HDL level change,[7],no change
same,Heart rate change,[7],modest decline
same,LDL level change,[7],modest increase
same,Systolic blood pressure change,[7],no change
same,Triglycerides change,[7],modest decline
same,Weight change,[7],no change
same,Benefit in reducing decline in cognitive ability in AD subjects negative for the ApoE4 allele,[8]; ApoE4-negative subjects afflicted with AD,significant benefit
same,DHA treatment effect on any outcome measure in the E4-positive group,[8]; ApoE4-positive subjects,no DHA treatment effect
same,Plasma phospholipid DHA,"[9]; approx. 2 g DHA/day oral, 6 months",9.1 wt %
same,Plasma phospholipid DHA,"[9]; approx. 2 g DHA/day oral, 12 months",10.23 wt %
same,Plasma phospholipid DHA,"[9]; approx. 2 g DHA/day oral, 18 months, p<0.001",9.77 wt %
same,Plasma phospholipid DHA,[9]; baseline (before treatment),3.18 wt %
same,"ADAS-cog points change over 18 months, E4-negative group","[10]; ApoE4-negative, 61 DHA subjects, placebo 10.11±10.58 (48 subjects), p=0.028",6.23±8.58 points
same,Difference DHA vs placebo in 12 month ADAS scores,"[10]; Wilcoxan rank p=0.027, FIG. 1",modest difference
same,Difference DHA vs placebo on ADAS-cog (rate of change),"[10]; all subjects, LME model, 18 months",did not differ; also recorded: no significant difference
same,ADAS-cog points change over 18 months,"[10]; all subjects, unadjusted, placebo 7.98±9.84, p=0.41",8.27±8.9 points
same,ADAS-cog decline in ApoE4 negative subjects with MMSE >21 compared to MMSE ≦21,"[10]; post hoc analysis, FIGS. 7A and 7B",significantly less decline; also recorded: more pronounced
same,Difference in the effect of DHA administration on ADAS-cog between ApoE4-positive and ApoE4-negative subjects,"[10]; pre-specified sub-group analysis, FIGS. 6A and 6B",statistically significant difference
